Source: patent US8283352B2, “Solubilization preparation” (Dainippon Sumitomo Pharma Co., Ltd., priority 2005, dated 2012)
Where a name gives a salt, the structure may show the parent alone.

What was measured:
Format in all cases: physicochemical
[1] = Solubility of lurasidone or a free form thereof in additives (Table 1), visual check; settings: for solubility at 30 min: thermodynamic from solid
Procedure: Solid-type additives were studied in 10% aqueous solutions thereof and liquid-type ones were studied in 100% solutions thereof. Specifically, to 10% aqueous solution of solid-type additive or to 100% solution of liquid-type one was added lurasidone or a free form thereof so that a concentration thereof was 10 mg/mL, and the mixture was promoted to be dissolved by an operation such as stirring, heating or sonication. It was confirmed by visual check 30 minutes after the operation whether the mixture was perfectly dissolved. In case that the mixture was perfectly dissolved in a concentration of 10 mg/mL, another amount of lurasidone or a free form thereof was added to be evaluated.

[2] = Storage stability of 30 mg/mL solutions, residual ratio by reverse phase HPLC (Table 2); settings: aqueous solutions using benzyl alcohol, propylene glycol, N,N-dimethylacetamide and lactic acid; one-month storage at 60° C. and 40° C.
Procedure: Solutions comprising lurasidone and a hydrochloride thereof in a concentration of 30 mg/mL were prepared in formulations in Table 2 to be stored under warming conditions (60° C. and 40° C.). After one-month storage, a residual ratio of principal agent was measured by using reverse phase HPLC. […] In other words, the present invention can provide a solution-type preparation with high stability wherein lurasidone and a free form thereof are solubilized at high concentrations.
Column: YMC-Pack AM-312 (5 μm, 6.0 mmφ×150 mm, manufactured by YMC Co., Ltd.)
Detector: ultraviolet absorptiometer (measured wavelength: 230 nm)
Column temperature: constant temperature around 25° C.
Solution A: 0.025% aqueous trifluoroacetic acid solution/acetonitrile mixture (4:1)
Solution B: 0.025% trifluoroacetic acid in acetonitrile solution

Solubility in water = test: Solubility in water

O=C1[C@@H]2[C@H]3CC[C@H](C3)[C@@H]2C(=O)N1C[C@@H]1CCCC[C@H]1CN1CCN(c2nsc3ccccc23)CC1 [A free form of lurasidone, N-[4-[4-(1,2-benzisothiazol-3-yl)-1-piperazinyl]-(2R,3R)-2,3-tetramethylene-butyl]-(1′R,2′S,3′R,4′S)-2,3-bicyclo[2,2,1]heptane-dicarboxyimide]
Solubility ([1]; additive No. 21: Squalane): <10 mg/mL
Solubility ([1]; additive No. 22: Medium-chain triglyceride): <10 mg/mL
Solubility ([1]; additive No. 23: Benzyl benzoate): <10 mg/mL
Solubility ([1]; additive No. 24: Anhydrous ethanol): <10 mg/mL
Solubility ([1]; additive No. 25: Sorbitan sesquioleate): <10 mg/mL
Solubility ([1]; additive No. 26: 1,3-Butanediol): <10 mg/mL
Solubility ([1]; additive No. 27: Dipropylene glycol): <10 mg/mL
Solubility ([1]; additive No. 28: Triethyleneglycol): <10 mg/mL
Solubility ([1]; additive No. 29: Isopropyl alcohol): <10 mg/mL
Solubility ([1]; additive No. 32: Isopropyl myristate): <10 mg/mL
Solubility ([1]; additive No. 34: Monoethanolamine): <10 mg/mL
Solubility ([1]; additive No. 35: Diethanolamine): <10 mg/mL
Solubility ([1]; additive No. 36: Triethanolamine): <10 mg/mL
Solubility ([1]; additive No. 37: Liquid paraffin): <10 mg/mL
Solubility ([1]; additive No. 38: Toluene): >50 mg/mL
Solubility ([1]; additive No. 41: N-Methyl-2-pyrrolidone): >50 mg/mL
Solubility ([1]; additive No. 42: Glycol salicylate): <10 mg/mL
Solubility ([1]; additive No. 44: Triacetin): <10 mg/mL
Solubility ([1]; additive No. 46: Sesame oil): <10 mg/mL
Solubility ([1]; additive No. 47: Castor oil): <10 mg/mL
Solubility ([1]; additive No. 49: Arachis oil): <10 mg/mL
Solubility ([1]; additive No. 50: Camellia oil): <10 mg/mL
Solubility ([1]; additive No. 51: Soybean oil): <10 mg/mL
Solubility ([1]; additive No. 52: Olive oil): <10 mg/mL

O=C1[C@@H]2[C@H]3CC[C@H](C3)[C@@H]2C(=O)N1C[C@@H]1CCCC[C@H]1CN1CCN(c2nsc3ccccc23)CC1 [Lurasidone, N-[4-[4-(1,2-benzisothiazol-3-yl)-1-piperazinyl]-(2R,3R)-2,3-tetramethylene-butyl]-(1′R,2′S,3′R,4′S)-2,3-bicyclo[2,2,1]heptanedicarboxyimide hydrochloride]
solubility at 30 min ([1]; aqueous buffer, additive No. 8: Sodium hydrogen carbonate): < 10000 µg/mL
solubility at 30 min ([1]; aqueous with cosolvent or surfactant or cyclodextrin, additive No. 1: Citric acid): < 10000 µg/mL
solubility at 30 min ([1]; aqueous with cosolvent or surfactant or cyclodextrin, additive No. 2: Sodium citrate): < 10000 µg/mL
solubility at 30 min ([1]; aqueous with cosolvent or surfactant or cyclodextrin, additive No. 3: L-Aspartic acid): < 10000 µg/mL
solubility at 30 min ([1]; aqueous with cosolvent or surfactant or cyclodextrin, additive No. 4: L-Arginine): < 10000 µg/mL
solubility at 30 min ([1]; aqueous with cosolvent or surfactant or cyclodextrin, additive No. 5: Soy lecithin): < 10000 µg/mL
solubility at 30 min ([1]; aqueous with cosolvent or surfactant or cyclodextrin, additive No. 6: Polysorbate 80): < 10000 µg/mL
solubility at 30 min ([1]; aqueous with cosolvent or surfactant or cyclodextrin, additive No. 7: D-Mannitol): < 10000 µg/mL
solubility at 30 min ([1]; aqueous with cosolvent or surfactant or cyclodextrin, additive No. 9: β-Cyclodextrin): < 10000 µg/mL
solubility at 30 min ([1]; aqueous with cosolvent or surfactant or cyclodextrin, additive No. 10: Maleic acid): < 10000 µg/mL
solubility at 30 min ([1]; aqueous with cosolvent or surfactant or cyclodextrin, additive No. 12: Calcium bromide): < 10000 µg/mL
solubility at 30 min ([1]; aqueous with cosolvent or surfactant or cyclodextrin, additive No. 13: Ethylene diamine hydrochloride): < 10000 µg/mL
solubility at 30 min ([1]; aqueous with cosolvent or surfactant or cyclodextrin, additive No. 14: Tris): < 10000 µg/mL
solubility at 30 min ([1]; aqueous with cosolvent or surfactant or cyclodextrin, additive No. 16: Nicotinic amide): < 10000 µg/mL
solubility at 30 min ([1]; aqueous with cosolvent or surfactant or cyclodextrin, additive No. 17: Capric acid): < 10000 µg/mL
solubility at 30 min ([1]; oil or lipid, additive No. 11: Ethyl oleate): < 10000 µg/mL
solubility at 30 min ([1]; oil or lipid, additive No. 21: Squalane): < 10000 µg/mL
solubility at 30 min ([1]; oil or lipid, additive No. 22: Medium-chain triglyceride): < 10000 µg/mL
solubility at 30 min ([1]; oil or lipid, additive No. 46: Sesame oil): 1000 to 10000 µg/mL
solubility at 30 min ([1]; oil or lipid, additive No. 47: Castor oil): 1000 to 10000 µg/mL
solubility at 30 min ([1]; oil or lipid, additive No. 49: Arachis oil): 1000 to 10000 µg/mL
solubility at 30 min ([1]; oil or lipid, additive No. 50: Camellia oil): 1000 to 10000 µg/mL
solubility at 30 min ([1]; oil or lipid, additive No. 51: Soybean oil): 1000 to 10000 µg/mL
solubility at 30 min ([1]; oil or lipid, additive No. 52: Olive oil): < 1000 µg/mL
solubility at 30 min ([1]; organic solvent or mixture, additive No. 15: Polyethylene glycol 400): < 10000 µg/mL
solubility at 30 min ([1]; organic solvent or mixture, additive No. 18: Concentrated glycerin): < 10000 µg/mL
solubility at 30 min ([1]; organic solvent or mixture, additive No. 19: Propylene glycol): 30000 to 100000 µg/mL
solubility at 30 min ([1]; organic solvent or mixture, additive No. 20: Lactic acid): > 100000 µg/mL
solubility at 30 min ([1]; organic solvent or mixture, additive No. 30: Benzyl alcohol): > 200000 µg/mL
stability in aqueous solutions (in words) [2]: stable
solubility in water (Solubility in water): less than several
